Measured values reported in patent US20220048919A1, “HETEROARYLDIHYDROPYRIMIDINE DERIVATIVES AND METHODS OF TREATING HEPATITIS B INFECTIONS” (Janssen Phrmaceutica NV, priority 2018, published 2022).

Assays:
[1] = Cytotoxicity determination in HepG2.2.15 cells (CCK-8 cell viability); format: cell-based; settings: human, 6 days of compound treatment, CCK-8 assay
Procedure: (§1) HepG2.2.15 (the HepG2.2.15 cell line can be produced by transfection of the HepG2 cell line as described in Sells, Chen, and Acs 1987 (Proc. Natl. Acad. Sci. USA 84:1005-1009), and the HepG2 cell line is available from ATCC® under number HB-8065™).
(§2) HepG2.2.15 cells were plated into 96-well plate in 2% FBS culture medium at the density of 40,000 cells/well and 5,000 cells/well for HBV inhibitory activity and cytotoxicity determination, respectively. After incubation at 37° C., 5% CO2 overnight, cells were treated with medium containing compounds for 6 days with medium and compounds refreshed after 3 days of treatment. Each compound was tested in a 1:3 serial dilutions at 8 different concentrations in triplicate. The highest concentration of the compounds was 10 uM or 1 uM for anti-HBV activity assay and 100 uM for cytotoxicity determination.
Cell viability was determined by CCK-8 assay. After 6 days of compounds treatment, 20 μl CCK-8 reagents were added to each well of cytotoxicity assay plates. Cell plates were incubated at 37° C., 5% CO2 for 2.5 h. The absorbance at 450 nm wavelength and the absorbance at 630 nm wavelength as reference was measured.
(§3) EC50 and CC50 values are calculated by the […] PRISM software.

HBV = assay: Anti-HBV activity in HepG2.2.15 cells (HBV DNA in culture medium by qPCR); format: cell-based; settings: Hepatitis B virus, 144 h, 6 days of compound treatment
Procedure: as §1, §2
The change of HBV DNA level induced by the compounds was assessed by quantitative real-time polymerase chain reaction (qPCR). Briefly, the HBV DNA in the culture medium was extracted using QIAamp 96 DNA Blood Kit according to the manual and then quantified by real-time PCR assay using the primers and probe in the table 1 below.
as §3

Compound | CC50 at 6 days [1] | EC50 (HBV)
CCOC(=O)C1=C(CN2CCN3C(=O)N(CC(C)(C)C(=O)O)CC3(C)C2)NC(c2nccs2)=N[C@H]1c1cccc(F)c1C (single isomer, unassigned) [Compound 1B] | 24.3 µM | 0.009 µM
CCOC(=O)C1=C(CN2CCN3C(=O)N(CC(C)(C)C(=O)O)CC3(CC)C2)NC(c2nccs2)=N[C@H]1c1cccc(F)c1C (single isomer, unassigned) [Compound 4B, 3-((S*)-7-(((S)-5-(Ethoxycarbonyl)-6-(3-fluoro-2-methylphenyl)-2-(thiazol-2-yl)-3,6-dihydropyrimidin-4-yl)methyl)-8a-ethyl-3-oxohexahydroimidazo[1,5-a]pyrazin-2(3H)-yl)-2,2-dimethylpropanoic Acid] | 18.5 µM | 0.165 µM
CCOC(=O)C1=C(CN2CCN3C(=O)N([C@H]4CC[C@H](C(=O)O)CC4)C[C@]3(C)C2)NC(c2nccs2)=N[C@H]1c1cccc(F)c1C (relative stereo) [Compound 5A, (trans)-4-((S)-7-(((S*)-5-(Ethoxycarbonyl)-6-(3-fluoro-2-methylphenyl)-2-(thiazol-2-yl)-3,6-dihydropyrimidin-4-yl)methyl)-8a-methyl-3-oxohexahydroimidazo[1,5-a]pyrazin-2(3H)-yl)cyclohexanecarboxylic Acid] | 9.2 µM | 0.034 µM
CCOC(=O)C1=C(CN2CCN3C(=S)N(CC(C)(C)C(=O)O)CC3(C)C2)NC(c2nccs2)=N[C@H]1c1cccc(F)c1C (single isomer, unassigned) [Compound 6A, 3-((R*)-7-(((S)-5-(Ethoxycarbonyl)-6-(3-fluoro-2-methylphenyl)-2-(thiazol-2-yl)-3,6-dihydropyrimidin-4-yl)methyl)-8a-methyl-3-thioxohexahydroimidazo[1,5-a]pyrazin-2(3H)-yl)-2,2-dimethylpropanoic Acid] | 13 µM | 0.012 µM
CCOC(=O)C1=C(CN2CCN3C(=O)N(CC(C)(C)C(=O)O)C[C@]3(C)C2)NC(c2nccs2)=N[C@H]1c1cccc(F)c1Cl (single isomer, unassigned) [Compound 2A, (S*)-3-(-7-(((R*)-6-(2-Chloro-3-fluorophenyl)-5-(ethoxycarbonyl)-2-(thiazol-2-yl)-3,6-dihydropyrimidin-4-yl)methyl)-8a-methyl-3-oxohexahydroimidazo[1,5-a]pyrazin-2(3H)-yl)-2,2-dimethylpropanoic Acid] | 19.4 µM | 0.016 µM
COC(=O)C1=C(CN2CCN3C(=O)N(CC(C)(C)C(=O)O)C[C@]3(C)C2)NC(c2nccs2)=N[C@H]1c1ccc(F)cc1Br (relative stereo) [Compound 3A, 3-((S*)-7-(((R*)-6-(2-Bromo-4-fluorophenyl)-5-(methoxycarbonyl)-2-(thiazol-2-yl)-3,6-dihydropyrimidin-4-yl)methyl)-8a-methyl-3-oxohexahydroimidazo[1,5-a]pyrazin-2(3H)-yl)-2,2-dimethylpropanoic Acid] | 26.7 µM | 0.038 µM
